# Data taken from patent US20230099344A1, “COMPOUNDS AND METHODS FOR THE TARGETED DEGRADATION OF IRAK-4” (Arvinas Operations, Inc., priority 2021, published 2023).
# Biological target: T1, IRAK-4 (Homo sapiens, UniProt Q9NWZ3)
# T1 sequence (Q9NWZ3 1-460): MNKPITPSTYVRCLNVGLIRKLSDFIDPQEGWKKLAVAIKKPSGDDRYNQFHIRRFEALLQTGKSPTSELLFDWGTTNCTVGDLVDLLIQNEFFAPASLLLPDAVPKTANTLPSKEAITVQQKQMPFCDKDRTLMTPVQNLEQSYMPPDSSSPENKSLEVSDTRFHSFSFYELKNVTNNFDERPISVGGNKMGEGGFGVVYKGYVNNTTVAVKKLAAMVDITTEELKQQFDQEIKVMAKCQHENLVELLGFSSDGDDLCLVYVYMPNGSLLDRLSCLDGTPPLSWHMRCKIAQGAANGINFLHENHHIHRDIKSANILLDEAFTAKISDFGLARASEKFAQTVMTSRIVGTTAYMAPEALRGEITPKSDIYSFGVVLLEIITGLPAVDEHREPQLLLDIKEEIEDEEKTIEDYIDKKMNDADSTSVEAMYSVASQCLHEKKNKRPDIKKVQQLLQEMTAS
# Assay: IRAK-4 ELISA, PBMC degradation
# Format: cell-based
# Parameters: endogenous in cells; host or cells: PBMC
# Conditions: treated overnight
# Description: Reagents: Human IRAK-4 Matched Antibody Pair Kit (Abcam ab218182) and ELISA Accessory Pack (Abcam ab210905).
# Cell Treatment and Lysis:
# 1. OCI-Ly10: 200,000 cells are seeded at 1×10^6/ml in 96-well U-bottom plates 200 ul per well, treated with compound the same day. Incubate overnight. 2. PBMC: 800,000 cells are seeded at 2×10^6/ml in 96-well U-bottom deep-well plates, 400 ul per well, treated with compound the same day. Incubate overnight.
# Cell lysate is collected and analyzed by ELISA for IRAK-4 levels.
SMILES,DC50 [nM],Dmax [%],PBMC DC90
O=C1CCC(N2C(=O)c3ccc(N4CC(F)(CN5CCC(N6Cc7cc(NC(=O)c8cnn9cccnc89)c(OC8CC8)cc7C6=O)CC5)C4)cc3C2=O)C(=O)N1 (stereo not drawn) [Example 85],1 to 5,80 to 90,C (C represents a DC90 value ≥25.0 nM and <50 nM)
O=C1CCC(N2C(=O)c3ccc(N4CC(F)(CN5CCC(N6Cc7cc(NC(=O)c8cnn9cccnc89)c(OCC8CC8)cc7C6=O)CC5)C4)cc3C2=O)C(=O)N1 (stereo not drawn) [Example 89],1 to 5,80 to 90,B (B represents a DC90 value ≥10.0 nM and <25.0 nM)
CC(C)Oc1cc2c(cc1NC(=O)c1cnn3cccnc13)CN(CCOCC1CCN(c3ccc4c(c3)C(=O)N(C3CCC(=O)NC3=O)C4=O)CC1)C2=O (stereo not drawn) [Example 90],< 1,≥ 90,A (A represents a DC90 value <10.0 nM)
O=C1CCC(N2C(=O)c3ccc(N4CCN(CCOC[C@H](F)CN5Cc6cc(NC(=O)c7cnn8cccnc78)c(N7CCOCC7)cc6C5=O)CC4)cc3C2=O)C(=O)N1 (stereo partly drawn) [Example 92],1 to 5,≥ 90,B (B represents a DC90 value ≥10.0 nM and <25.0 nM)
O=C1CCC(N2C(=O)c3ccc(N4CCC(COCCN5Cc6cc(NC(=O)c7cnn8cccnc78)c(N7CCOCC7)cc6C5=O)CC4)cc3C2=O)C(=O)N1 (stereo not drawn) [Example 95],< 1,≥ 90,A (A represents a DC90 value <10.0 nM)
O=C1CCC(N2C(=O)c3ccc(N4CC(F)(CN5CCC(N6Cc7cc(NC(=O)c8cnn9cccnc89)c(C8CC8)cc7C6=O)CC5)C4)cc3C2=O)C(=O)N1 (stereo not drawn) [Example 100],1 to 5,≥ 90,B (B represents a DC90 value ≥10.0 nM and <25.0 nM)
O=C1CCC(N2C(=O)c3ccc(N4CC(F)(CN5CCC(N6Cc7cc(NC(=O)c8cnn9cccnc89)c(N8CCOCC8)cc7C6=O)CC5)C4)cc3C2=O)C(=O)N1 (stereo not drawn) [Example 101],1 to 5,70 to 80,B (B represents a DC90 value ≥10.0 nM and <25.0 nM)
O=C1CCC(N2C(=O)c3ccc(N4CC(F)(CN5CCC(N6Cc7cc(NC(=O)c8cnn9cccnc89)c(OCC(F)F)cc7C6=O)CC5)C4)cc3C2=O)C(=O)N1 (stereo not drawn) [Example 102],1 to 5,70 to 80,C (C represents a DC90 value ≥25.0 nM and <50 nM)
O=C1CCC(N2C(=O)c3ccc(N4CC(CN5CCC(N6Cc7cc(NC(=O)c8cnn9cccnc89)c(OCC(F)F)cc7C6=O)CC5)C4)cc3C2=O)C(=O)N1 (stereo not drawn) [Example 103],< 1,80 to 90,A (A represents a DC90 value <10.0 nM)
O=C1CCC(N2Cc3cc(N4CC(F)(CN5CCC(N6Cc7cc(NC(=O)c8cnn9cccnc89)c(OCC8CC8)cc7C6=O)CC5)C4)ccc3C2=O)C(=O)N1 (stereo not drawn) [Example 104],< 1,70 to 80,A (A represents a DC90 value <10.0 nM)
COc1cc(N2CC(CN3CCC(n4cc5cc(NC(=O)c6cnn7cccnc67)c(OCC6CC6)cc5n4)CC3)C2)cc2c1C(=O)N(C1CCC(=O)NC1=O)C2 (stereo not drawn) [Example 124],< 1,≥ 90,A (A represents a DC90 value <10.0 nM)
COc1cc(N2CC(CN3CCC(n4cc5cc(NC(=O)c6cnn7cccnc67)c(OCC6CC6)cc5n4)CC3)C2)cc2c1C(=O)N(C1CCC(=O)NC1=O)C2=O (stereo not drawn) [Example 131],< 1,≥ 90,A (A represents a DC90 value <10.0 nM)
COc1cc(N2CCC(CN3CCC(n4cc5cc(NC(=O)c6cnn7cccnc67)c(OCC6CC6)cc5n4)CC3)CC2)cc2c1C(=O)N(C1CCC(=O)NC1=O)C2 (stereo not drawn) [Example 132],< 1,≥ 90,A (A represents a DC90 value <10.0 nM)
COc1cc(N2CCC(CN3CCC(n4cc5cc(NC(=O)c6cnn7cccnc67)c(OCC6CC6)cc5n4)CC3)CC2)cc2c1C(=O)N(C1CCC(=O)NC1=O)C2=O (stereo not drawn) [Example 133],< 1,≥ 90,A (A represents a DC90 value <10.0 nM)
